The term IC50 denotes the point on the concentration scale where inhibition reaches its midpoint.

We go through one compound from patent publication EP2042188A1, “PHARMACEUTICAL COMPOSITION FOR TREATING OR PREVENTING HCV INFECTION” (priority 2006, dated 2007).

Where two headings read alike, the source gives them in different places.

The test system of series [1] is FLR3-1 HCV subgenomic replicon cells (genotype 1b; Con-1). Briefly: Luciferase assay of HCV replication in HCV subgenomic replicon cells. In kind it is cell-based. Conditions: Hepatitis C virus; for IC50: 72 h, FLR3-1 cells, read-out: IC50 of myriocin. How it is done: First, myriocin (Sigma, St. Louis, MO, USA) was added at a final concentration of 0.2, 1.0, 3.9, 15.6, or 62.5 nM to a growth medium for FLR3-1 HCV subgenomic replicon cells (genotype 1b; Con-1; Sakamoto, H. et al., Nat Chem Biol, 1, 333-337 (2005)). After 72 hours of incubation, the present inventors carried out luciferase assay using the Bright-Glo luciferase assay kit (Promega, Madison, WI, USA).
FLR3-1 cells were incubated with 1 or 2.5 µM of a sphingolipid intermediate (dihydrosphingosine, sphingosine, or sphingosine-1-phosphate), and then serial dilutions of myriocin were added thereto. After 72 hours, IC50 in each combination was determined by luciferase assay.
(A replicon is a self-replicating genome or part of one, used to study replication in cells.)

Series [2] concerns NS3 protein. The series is described as follows: Immunoblotting and immunofluorescent staining of NS3 protein in HCV replicon cells. Type of series: cell-based. (A western blot detects proteins with antibodies after separation by electrophoresis.)
The nature of series [3]: Serum human albumin level (Alb-II kit) in HCV 1b infected chimeric mice. In kind it is in vivo, chimeric mice having humanized liver. Conditions: serum of HCV 1b infected chimeric mice. How it is done:
The present inventors monitored the human albumin (h-Alb) level at the same time. The human albumin level was determined using 2 µl of serum and the Alb-II kit (Eiken Chemical, Tokyo, Japan) according to the manufacturer's instructions.

Series [4] relates to HCV genotype 1b (HCR6). The series is described as follows: Serum HCV RNA (real-time PCR) in chimeric mice with humanized liver infected with HCV genotype 1b, myriocin and/or PEG-IFN. In kind it is in vivo, chimeric mice having humanized liver. The settings on record: after eight days, myriocin 1 mg/kg (reduced to 0.5 mg/kg on weight loss). How it is done: The inhibitory activity of myriocin was examined using chimeric mice having humanized liver infected with HCR6 (genotype 1b). The chimeric mice used were purchased from PhoenixBio Co. (Hiroshima, Japan).
Specifically, according to Table 2, myriocin and/or PEG-IFN (Chugai, Tokyo, Japan) were administered intraperitoneally or subcutaneously into mice infected with HCV genotype 1b (HCR6; accession number AY045702) and blood was collected. Table 2: Administration schedule for chimeric mice infected with HCV genotype 1b
In Table 2, the symbols B, I, and M indicate that each step was conducted as needed and the administration of agents was started on day 0. PEG-IFN was injected at a dose of 30 µg/kg. The dose of myriocin injection was varied depending on the mouse weight. The administration was started at 1 mg/kg (M). When the weight was reduced by 10%, the dose was reduced to 0.5 mg/kg (M1/2). The administration was discontinued when the weight was reduced by 20%.
Next, total RNAs were purified using AGPC method from 1 µl of sera or hepatic tissues collected from the chimeric mice. HCV RNA was quantified by real-time PCR using a method known to those skilled in the art (Takeuchi, T. et al., Gastroenterology, 116, 636-642 (1999)).
In general terms: Real-time PCR tracks product formation cycle by cycle.

Series [5] deals with HCV genotype, 1a (HCG9). The series is described as follows: HCV RNA and core protein in serum and liver of chimeric mice infected with HCV genotype 1a. In kind it is in vivo. The settings on record: 2 mg/kg of myriocin every day for six days. How it is done:
The serum RNA level in these mice reached about 1x10^8 copies/ml, 10 times higher than that of HCV 1b (HCR6) (Fig. 5A). Therefore, it was assumed that the HCV core protein in the hepatocytes could be readily detected by immunofluorescent staining. The present inventors administered 2 mg/kg of myriocin to 1a-4 chimeric mice every day for six days and then excised the livers. For comparison, livers were also excised from non-treated mice (1a-1), non-infected mice (1a-2), and PEG-IFN-treated mice (1a-3) in the same way. The livers were homogenized in RIPA, and 100 µg of the total protein was used for detection of the core protein using the Ortho HCV core protein ELISA kit (Eiken Chemical).
Next, the liver tissues of the chimeric mice were examined by immunofluorescent staining. Liver sections from the 1a-1 and 1a-4 mice were probed using a biotinylated anti-HCV core protein monoclonal antibody and anti-human hepatocyte monoclonal antibody (Dako, Glostrup, Denmark) as primary antibodies. Then, the sections were probed with streptavidin-Alexa 488 (Invitrogen) and anti-mouse IgG-Alexa-546 (Invitrogen). Furthermore, nuclei were stained with DAPI.
The effect of myriocin treatment on the expression of HCV RNA and core protein in the livers of the chimeric mice was confirmed by the method described above.

Series [6] relates to FLR3-1 cells. The series is described as follows: Cell viability (Tetra Color One kit). Type of series: cell-based. Conditions: 72 hours of incubation, 0.2 to 62.5 nM. How it is done: Furthermore, myriocin was added to FLR3-1 cells, and after 72 hours of incubation, the cell viability was determined using Tetra Color One kit (Seikagakukogyo, Tokyo, Japan) according to the manufacturer's instructions.

Series [7] has as its system de novo sphingolipid biosynthesis in FLR3-1 cells. Briefly: De novo sphingolipid biosynthesis monitored by [14C]-serine incorporation and TLC. Type of series: cell-based. The settings on record: TLC. How it is done: To investigate the correlation between sphingolipid metabolites and HCV replication, the present inventors monitored the de novo sphingolipid biosynthesis in FLR3-1 cells in the presence of myriocin.
First, FLR3-1 cells were incubated with [^14C]-serine (0.5 µCi/ml) in Opti-MEM (Invitrogen) for two hours. After the cells were lysed in 0.1% SDS, total lipid was extracted using chloroform/methanol (1:2 (v/v)). The extract was spotted onto a Silica gel 60 thin layer chromatography (TLC) plate (Merck, Darmstadt, Germany), and chromatographed using methyl acetate/ 1-propanol/ chloroform/methanol/ 0.25% KCl (25:25:25:10:9 (v/v)). Radioactive spots were detected using BAS 2000 (Fujifilm, Kanagawa, Japan).

Take `CCCCCCC(=O)CCCCCC/C=C/C[C@@H](O)[C@H](O)[C@@](N)(CO)C(=O)O` [myriocin, Myriocin]: the IC50 is 0.0777 µM in series [1] (Agent added: Dihydrosphingosine 1.0 µM); > 1 µM in series [1] (Agent added: Dihydrosphingosine 2.5 µM); 0.0224 µM in series [1] (Agent added: Sphingosine 1.0 µM); > 1 µM in series [1] (Agent added: Sphingosine 2.5 µM); 0.0147 µM in series [1] (Agent added: Sphingosine-1-phosphate 1.0 µM); > 1 µM in series [1] (Agent added: Sphingosine-1-phosphate 2.5 µM). Also, the IC50 in series [1] (No agent added, luciferase assay) was ~0.0058 µM. For the same compound, the inhibition at 0.0625 µM in series [1] (in the presence of 62.5 nM myriocin, 72 hours, read-out: maximum inhibitory rate (luciferase activity)) was ~80%. Also, in series [2], the NS3 protein entry is listed as “reduced”. Also, the human albumin level entry in series [3] is on record as “without affecting h-Alb”. For the same compound, the “reduction of serum level of HCV RNA” value in series [4] is listed as 10 to 100 times. Also, the “serum level of HCV RNA” value in series [4] (before treatment 3 x 10^6 to 1 x 10^7 copies/ml) is 6 x 10^5 to 1 x 10^4 copies/ml; in series [5] (1a-4 mice, non-treated about 1x10^8 copies/ml) it was 1 x 10^5 copies/ml. In addition, in series [5] (1a-4 mice), the “HCV 1a RNA and core protein in the liver” value is listed as “also reduced”. The “core protein in human hepatocytes (immunofluorescent staining)” value in series [5] (liver sections of 1a-4 mice) was “disappeared”. In addition, the cell viability result in series [6] is on record as “without affecting the cell viability”. For the same compound, in series [7], the “production of both ceramide and sphingomyelin” value was “inhibited in a dose dependent manner”. In series [7], the “production of phosphatidylethanolamine and phosphatidylserine” value is “not affected”.
